Source: ChEMBL document CHEMBL2034915, “Ring Structure and Aromatic Substituent Effects on the pK a of the Benzoxaborole Pharmacophore” (ACS Med Chem Lett, 2012)
The source made the active and inactive calls. The calls are words filed in the database; no cut-off is given here.

Columns and labels:
[1] = Binding affinity to adenosine monophosphate in phosphate buffer by ARS competition assay at pH 7.4
[2] = Dissociation constant, pKa of the compound in aqueous solution by [11]B-NMR analysis; type: physicochemical
[3] = Dissociation constant, pKa of the compound in aqueous solution by spectrophotometry; type: physicochemical

Activity [1]	pKa [2]	pKa [3]	SMILES
Active			OB1OCc2cc(C(F)(F)F)ccc21
	8.4	8.4	OB1OCCc2ccccc21 [BENZOXABORIN]
Active	7.2	7.34	OB1OCc2ccccc21 [BENZOXABOROLE]
		8.32	CC1(C)OB(O)c2ccccc21
